From patent US20040071967A1, “Microcapsule containing phase-change material and nucleating agent” (priority 2000, published 2004)
Read-outs that look alike come from different tables or passages of the source. Blank lines part the entries; values can stand above or below the substance they belong to.

What was measured:
Format in all cases: physicochemical
[1] = Dynamic surface tension of aqueous solutions, maximum bubble pressure method; details: for γ (0.1% solution) 1 b/s / γ (0.1% solution) 6 b/s / limiting γ 0.1 b/s / limiting γ 20 b/s / pC20: Tables 5 and 6; for limiting γ 0.1 b/s / limiting γ 20 b/s: lowest surface tension in water; for pC20: negative logarithm of molar concentration giving 52.1 dyne/cm at 0.1 b/s
Procedure: In practical terms, high bubble rates correspond to high printing speeds in lithographic printing, high spray or roller velocities in coating applications, and rapid application rates for agricultural products. […] This value is a measure of the efficiency of a surfactant. […] The critical aggregation concentrations (solubility limit or critical micelle concentration) were determined by intersection of the linear portion of a surface tension/In concentration curve with the limiting surface tension as is described in many textbooks. The limiting surface tensions at 0.1 and 20 bubbles/second (b/s) represent the lowest surface tensions in water which can be achieved at the given surface creation rate for a given surfactant regardless of the amount of surfactant used. These values give information about the relative ability to a surfactant to reduce surface defects under near-equilibrium condition (0.1 b/s) through very dynamic conditions (20 b/s). Lower surface tensions would allow the elimination of defects upon application of a formulation onto lower energy surfaces.

[2] = Critical aggregation concentration (solubility limit or critical micelle concentration)
Procedure: The critical aggregation concentrations (solubility limit or critical micelle concentration) were determined by intersection of the linear portion of a surface tension/In concentration curve with the limiting surface tension as is described in many textbooks. The limiting surface tensions at 0.1 and 20 bubbles/second (b/s) represent the lowest surface tensions in water which can be achieved at the given surface creation rate for a given surfactant regardless of the amount of surfactant used. These values give information about the relative ability to a surfactant to reduce surface defects under near-equilibrium condition (0.1 b/s) through very dynamic conditions (20 b/s). Lower surface tensions would allow the elimination of defects upon application of a formulation onto lower energy surfaces.

[3] = Ross-Miles foam test based upon ASTM D 1173-53, 0.1 wt % solution; details: Tables 5 and 6; for RM Foam initial: initial foam height
Procedure: The foam height is measured at the completion of the addition (“Initial Foam Height”) and the time required for the foam to dissipate is recorded (“Time to 0 Foam”). This test provides a comparison between the foaming characteristics of various surfactant solutions. In general, in coatings, inks, and agricultural formulations, foam is undesirable because is complicates handling and can lead to coating and print defects, and to inefficient application of agricultural materials.

γ (0.1% solution) 1 b/s ([1]; 1 b/s): 33.6 dyne/cm
γ (0.1% solution) 6 b/s ([1]; 6 b/s): 36.6 dyne/cm
limiting γ 0.1 b/s ([1]; 0.1 b/s): 29.3 dyne/cm
limiting γ 20 b/s ([1]; 20 b/s): 31.4 dyne/cm
pC20 [1]: 4.07
Sol Limit [2]: 0.21 wt %
RM Foam initial [3]: 1.0 cm
RM Foam (t to 0) ([3]; time to 0 foam): (10 s)
Substance: 3.5 mole ethoxylate of 2,4,7,9-tetramethyl-5-decyne-4,7-diol capped with 2 moles of propylene oxide [Example 3]

γ (0.1% solution) 1 b/s ([1]; 1 b/s): 42.0 dyne/cm
γ (0.1% solution) 6 b/s ([1]; 6 b/s): 44.3 dyne/cm
Dynamic Surface Tension ([1]; 0.1 wt % in distilled water, 0.1 b/s): 40.5 dyne/cm
Dynamic Surface Tension ([1]; 0.1 wt % in distilled water, 1 b/s): 42.0 dyne/cm
Dynamic Surface Tension ([1]; 0.1 wt % in distilled water, 6 b/s): 44.3 dyne/cm
Dynamic Surface Tension ([1]; 0.1 wt % in distilled water, 15 b/s): 47.1 dyne/cm
Dynamic Surface Tension ([1]; 0.1 wt % in distilled water, 20 b/s): 48.1 dyne/cm
Dynamic Surface Tension ([1]; 0.5 wt % in distilled water, 0.1 b/s): 32.4 dyne/cm
Dynamic Surface Tension ([1]; 0.5 wt % in distilled water, 1 b/s): 33.6 dyne/cm
Dynamic Surface Tension ([1]; 0.5 wt % in distilled water, 6 b/s): 35.1 dyne/cm
Dynamic Surface Tension ([1]; 0.5 wt % in distilled water, 15 b/s): 36.6 dyne/cm
Dynamic Surface Tension ([1]; 0.5 wt % in distilled water, 20 b/s): 37.2 dyne/cm
Dynamic Surface Tension ([1]; 1.0 wt % in distilled water, 0.1 b/s): 29.8 dyne/cm
Dynamic Surface Tension ([1]; 1.0 wt % in distilled water, 1 b/s): 30.5 dyne/cm
Dynamic Surface Tension ([1]; 1.0 wt % in distilled water, 6 b/s): 32.1 dyne/cm
Dynamic Surface Tension ([1]; 1.0 wt % in distilled water, 15 b/s): 33.0 dyne/cm
Dynamic Surface Tension ([1]; 1.0 wt % in distilled water, 20 b/s): 33.7 dyne/cm
limiting γ 0.1 b/s ([1]; 0.1 b/s): 29.8 dyne/cm
limiting γ 20 b/s ([1]; 20 b/s): 33.7 dyne/cm
pC20 [1]: 4.05
Sol Limit ([2]; water, Tables 5 and 6, unit printed only in Table 7 footnote): (0.78) wt %
RM Foam (foam height remaining) ([3]; cm after 5 minutes): (1.3) cm
RM Foam initial [3]: 2.1 cm
Substance: 10 mole EO/2 mole PO block derivative of 2,4,7,9-tetramethyl-5-decyne-4,7-diol [Example 5]
